Data set [1] has as its system Staphylococcus aureus Smith. In words: Antibacterial spectrum, MIC (method of the Japan Society of Chemotherapy), A. Format: cell-based. The conditions noted are these: 10^6 cells/ml, read-out: MIC (minimum grouth inhibitory concentration). The protocol:
The antibacterial activity was determined by measuring minimum grouth inhibitory concentrations (MICs) in accordance with the method as designated by the Japan Society of Chemotherapy. A, B, C, and D in the table indicate the following meanings: A: Staphylococcus aureus Smith The test microorganisms were used at 10^6 cells/ml.

Data set [2] deals with Staphylococcus aureus SR 14 (R). Nature of the data set: Antibacterial spectrum, MIC (method of the Japan Society of Chemotherapy), B. Format: cell-based. The conditions noted are these: 10^6 cells/ml, read-out: MIC (minimum grouth inhibitory concentration). The method, then: The antibacterial activity was determined by measuring minimum grouth inhibitory concentrations (MICs) in accordance with the method as designated by the Japan Society of Chemotherapy.
A, B, C, and D in the table indicate the following meanings:
B: Staphylococcus aureus SR 14 (R)
The test microorganisms were used at 10^6 cells/ml.

Data set [3] relates to Escherichia coli 7437. Nature of the data set: Antibacterial spectrum, MIC (method of the Japan Society of Chemotherapy), C. Format: cell-based. The conditions noted are these: 10^6 cells/ml, read-out: MIC (minimum grouth inhibitory concentration). The protocol: The antibacterial activity was determined by measuring minimum grouth inhibitory concentrations (MICs) in accordance with the method as designated by the Japan Society of Chemotherapy. A, B, C, and D in the table indicate the following meanings: C: Escherichia coli 7437 The test microorganisms were used at 10^6 cells/ml.

In data set [4] the test system is Escherichia coli PC 51149 B. In words: Antibacterial spectrum, MIC (method of the Japan Society of Chemotherapy), D. Type of data set: cell-based. The settings on record: PC51149B, 10^6 cells/ml, read-out: MIC (minimum grouth inhibitory concentration). The method, then:
The antibacterial activity was determined by measuring minimum grouth inhibitory concentrations (MICs) in accordance with the method as designated by the Japan Society of Chemotherapy. A, B, C, and D in the table indicate the following meanings: D: Escherichia coli PC 51149 B The test microorganisms were used at 10^6 cells/ml.

Data set [5] is described as follows: Convulsion and psychotropic action in mice after oral administration. Type of data set: in vivo. The settings on record: orally, dose of 10 mg.

The structures appear in SMILES notation. ≈ marks a conversion by molar mass, not a printed value.

For `C=C1CN(c2c(F)cc3c(=O)c(C(=O)O)cn(C4CC4)c3c2F)CC1N` (stereo not drawn) [Compound I-1, 1-Cyclopropyl-6,8-difluoro-7-(3-amino-4-methylenepyrrolidin-1-yl)-1,4-dihydro-4-oxo-3-quinolinecarboxylic acid], the MIC in data set [1] is 0.05 µg/mL (≈ 0.138 µM); in data set [2], 0.05 µg/mL (≈ 0.138 µM); in data set [3] it was under 0.003 µg/mL; in data set [4] it was under 0.003 µg/mL. The “convulsion and psychotropic action” value in data set [5] is “neither convulsion nor psychotropic action was observed”.
As for `C=C1CN(c2c(F)cc3c(=O)c(C(=O)O)cn(C4CC4)c3c2Cl)CC1N` (stereo not drawn) [Compound I-2, 1-Cyclopropyl-8-chloro-6-fluoro-7-(3-amino-4-methylenepyrrolidin-1-yl)-1,4-dihydro-4-oxo-3-quinolinecarboxylic acid], the MIC in data set [1] was 0.01 µg/mL (≈ 0.0265 µM); in data set [2] it was 0.02 µg/mL (≈ 0.0529 µM); in data set [3] it was under 0.003 µg/mL; in data set [4] it was under 0.003 µg/mL.
Take `C=C1CN(c2c(F)c(N)c3c(=O)c(C(=O)O)cn(C4CC4)c3c2F)CC1N` (stereo not drawn) [Compound I-3, 1-Cyclopropyl-5-amino-6,8-difluoro-7-(3-amino-4-methylenepyrrolydin-1-yl)-1,4-dihydro-4-oxo-3-quinolinecarboxylic acid]: the MIC is 0.02 µg/mL (≈ 0.0531 µM) in data set [1], 0.05 µg/mL (≈ 0.133 µM) in data set [2], under 0.003 µg/mL in data set [3] and under 0.003 µg/mL in data set [4].
On to `C=C1CN(c2nc3c(cc2F)c(=O)c(C(=O)O)cn3C2CC2)CC1N` (stereo not drawn) [Compound I-4, 1-Cyclopropyl-6-fluoro-7-(3-amino-4-methylenepyrrolidin-1-yl)-1,4-dihydro-4-oxo-1,8-naphthyridine-3-carboxylic acid], for which the MIC in data set [1] is 0.1 µg/mL (≈ 0.29 µM); in data set [2] it was 0.1 µg/mL (≈ 0.29 µM); in data set [3], under 0.003 µg/mL; in data set [4], 0.006 µg/mL (≈ 0.0174 µM).
Take `C=C1CN(c2c(F)cc3c(=O)c(C(=O)O)cn(C4CC4)c3c2F)CC1NC` (stereo not drawn) [Compound I-5, 1-Cyclopropyl-6,8-difluoro-7-(3-methylamino-4-methylenepyrrolidin-1-yl)-1,4-dihydro-4-oxo-3-quinolinecarboxylic acid]: the MIC was 0.05 µg/mL (≈ 0.133 µM) in data set [1], 0.05 µg/mL (≈ 0.133 µM) in data set [2], under 0.003 µg/mL in data set [3] and 0.006 µg/mL (≈ 0.016 µM) in data set [4].
